Measurements from patent publication US8580794B2 (AbbVie Inc., priority 2009, dated 2013).

molecular target: GST-Bc1-2 (Homo sapiens, UniProt P10415); experiment: Time Resolved-Fluorescence Resonance Energy Transfer (TR-FRET) Bcl-2 binding assay with F-Bak peptide probe; settings: GST-Bcl-2 1 nM, F-Bak probe 100 nM, Tb-anti-GST 1 nM; '<' = below limit of detection; read-out: TR-FRET Bcl-2 Binding Ki
Sequence (P10415 whole entry): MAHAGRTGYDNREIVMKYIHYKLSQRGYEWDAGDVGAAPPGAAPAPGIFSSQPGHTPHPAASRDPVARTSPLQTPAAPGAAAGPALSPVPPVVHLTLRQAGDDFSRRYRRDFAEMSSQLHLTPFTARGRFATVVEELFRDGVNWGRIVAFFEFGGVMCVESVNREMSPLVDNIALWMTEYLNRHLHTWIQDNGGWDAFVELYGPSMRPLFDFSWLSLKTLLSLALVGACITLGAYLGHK

CN1CCN(Nc2ccc(S(=O)(=O)NC(=O)c3ccc(N4CCN(CC5=C(c6ccc(Cl)cc6)CC(C)(C)OC5)CC4)cc3Oc3cnc4[nH]ccc4c3)cc2[N+](=O)[O-])CC1 [Example 67, 4-(4-{[4-(4-chlorophenyl)-6,6-dimethyl-5,6-dihydro-2H-pyran-3-yl]methyl}piperazin-1-yl)-N-({4-[(4-methylpiperazin-1-yl)amino]-3-nitrophenyl}sulfonyl)-2-(1H-pyrrolo[2,3-b]pyridin-5-yloxy)benzamide] and CC1(C)CCC(CN2CCN(c3ccc(C(=O)NS(=O)(=O)c4ccc(OCC5COCCN5)c([N+](=O)[O-])c4)c(Oc4cnc5[nH]ccc5c4)c3)CC2)=C(c2ccc(Cl)cc2)C1 (centres unmarked) [Example 78, 4-(4-{[2-(4-chlorophenyl)-4,4-dimethylcyclohex-1-en-1-yl]methyl}piperazin-1-yl)-N-{[4-(morpholin-3-ylmethoxy)-3-nitrophenyl]sulfonyl}-2-(1H-pyrrolo[2,3-b]pyridin-5-yloxy)benzamide] cannot be ordered by Ki: less than 10 pM for the first, less than 10 pM for the second.

CC1(C)CCC(CN2CCN(c3ccc(C(=O)NS(=O)(=O)c4ccc(OCC5CCCC(=O)C5)c([N+](=O)[O-])c4)c(Oc4cnc5[nH]ccc5c4)c3)CC2)=C(c2ccc(Cl)cc2)C1 (centres unmarked) [Example 205, 4-(4-{[2-(4-chlorophenyl)-4,4-dimethylcyclohex-1-en-1-yl]methyl}piperazin-1-yl)-N-({3-nitro-4-[(3-oxocyclohexyl)methoxy]phenyl}sulfonyl)-2-(1H-pyrrolo[2,3-b]pyridin-5-yloxy)benzamide] and CC1(C)CCC(CN2CCN(c3ccc(C(=O)NS(=O)(=O)c4ccc(OCC5(F)CCNCC5)c([N+](=O)[O-])c4)c(Oc4cnc5[nH]ccc5c4)c3)CC2)=C(c2ccc(Cl)cc2)C1 [Example 127, 4-(4-{[2-(4-chlorophenyl)-4,4-dimethylcyclohex-1-en-1-yl]methyl}piperazin-1-yl)-N-({4-[(4-fluoropiperidin-4-yl)methoxy]-3-nitrophenyl}sulfonyl)-2-(1H-pyrrolo[2,3-b]pyridin-5-yloxy)benzamide] cannot be ordered by Ki: less than 10 pM for the first, less than 10 pM for the second.

First: COC1(Cc2ccccc2-c2ccc(Cl)cc2)CCN(c2ccc(C(=O)NS(=O)(=O)c3cnc(OCC4(F)CCOCC4)c(Cl)c3)c(Oc3cnc4[nH]ccc4c3)c2)CC1 [Example 263, 4-{4-[(4′-chlorobiphenyl-2-yl)methyl]-4-methoxypiperidin-1-yl}-N-({5-chloro-6-[(4-fluorotetrahydro-2H-pyran-4-yl)methoxy]pyridin-3-yl}sulfonyl)-2-(1H-pyrrolo[2,3-b]pyridin-5-yloxy)benzamide]
Second: CC1(C)CCC(CC2CCN(c3ccc(C(=O)NS(=O)(=O)c4ccc(OCC5CCOCC5)c(Cl)c4)c(Oc4cnc5[nH]ccc5c4)c3)CC2)=C(c2ccc(Cl)cc2)C1 [Example 316, 4-(4-{[2-(4-chlorophenyl)-4,4-dimethylcyclohex-1-en-1-yl]methyl}piperidin-1-yl)-N-{[3-chloro-4-(tetrahydro-2H-pyran-4-ylmethoxy)phenyl]sulfonyl}-2-(1H-pyrrolo[2,3-b]pyridin-5-yloxy)benzamide]
The Ki of the first is 3.9-fold lower: 156 pM for the first, 601 pM for the second. The first binds more tightly here.

CC1CN(c2ccc(C(=O)NS(=O)(=O)c3ccc(NCC4CCOCC4)c([N+](=O)[O-])c3)c(Oc3cnc4[nH]ccc4c3)c2)CCN1CC1=C(c2ccc(Cl)cc2)CC(C)(C)CC1 (centres unmarked) [Example 290, 4-(4-{[2-(4-chlorophenyl)-4,4-dimethylcyclohex-1-en-1-yl]methyl}-3-methylpiperazin-1-yl)-N-({3-nitro-4-[(tetrahydro-2H-pyran-4-ylmethyl)amino]phenyl}sulfonyl)-2-(1H-pyrrolo[2,3-b]pyridin-5-yloxy)benzamide] and O=C(NS(=O)(=O)c1ccc(NCC2CCOCC2)c([N+](=O)[O-])c1)c1ccc(N2CCN(CC3=C(c4ccc(Cl)cc4)CCC4(CCCC4)C3)CC2)cc1Oc1cnc2[nH]ccc2c1 [Example 79, 4-(4-{[8-(4-chlorophenyl)spiro[4.5]dec-7-en-7-yl]methyl}piperazin-1-yl)-N-({3-nitro-4-[(tetrahydro-2H-pyran-4-ylmethyl)amino]phenyl}sulfonyl)-2-(1H-pyrrolo[2,3-b]pyridin-5-yloxy)benzamide] cannot be ordered by Ki: less than 10 pM for the first, less than 10 pM for the second.
